These results are taken from patent US4299820A, “Therapeutic process employing amides of L and DL phenylglycines” (Pfizer Inc., priority 1977, dated 1981).

Square brackets hold non-standard residues; d marks the D form. Peptide text beside a SMILES is read from it. Hpg = N[C@H](C(=O)O)c1ccc(O)cc1

Test [1] concerns diaphragm tissue from fat-fed rats. Kind of test: Pyruvate oxidation by diaphragm tissue from fat-fed rats in vitro (14C from labelled pyruvate into CO2). To be noted: diaphragm tissue from rats fed on a high fat diet. Set-up: species or system rat. As to the method:
Representative compounds of the formula (II) have been tested for their ability to increase the oxidation of glucose and/or pyruvate as follows:
Diaphragm tissue is obtained from rats fed on a high fat diet similar to `Diet B` described by Zaragoza and Felber [Horm.Metab. Res., 2, 323 (1970)]. Pyruvate oxidation by such tissue is assessed by measurement of the rate of incorporation of carbon-14 from carbon-14-labelled pyruvate into carbon dioxide in vitro, as described by Bringolf [Eur. J. Biochem., 26, 360 (1972)]. The rate of pyruvate oxidation is depressed by 50%-75% compared with that by diaphragm tissue from rats fed on a normal diet. When the compounds of the formula (II) are added to the medium, they are found to stimulate pyruvate oxidation by diaphragm tissue from fat-fed rats in a dose dependent manner.

The test system of test [2] is pyruvate dehydrogenase enzyme. Put plainly: Proportion of active form of pyruvate dehydrogenase (PDHa/PDHt) in hearts of fat-fed rats after treatment. The settings on record: fat-fed rat heart, after 11/2 hours. It is filed as in vivo. As to the method:
The ability of compounds of formula (II) to increase the proportion of the active form of the pyruvate dehydrogenase enzyme has been measured in the following test:
Rats fed on a high fat diet as in the previous test, are treated either with placebo or with the compound of formula (II) by subcutaneous or intravenous injection or by oral administration. After 11/2 hours the rat hearts are removed and homogenized under conditions which minimize changes in the proportion of the pyruvate dehydrogenase enzyme (PDHt) which is present in the active form, as described by Whitehouse and Randle [Biochem. J., 134, 651 (1973)]. The total amount of the enzyme present (PDHt) and the amount which is present in the active form (PDHa) are assessed by a method similar to that described by Taylor et al. [J. Biol. Chem., 248, 73 (1973)]. The fat-feeding process is found to depress the ratio PDHa/PDHt from a normal value of about 0.7 to a value in the range from 0.05 to 0.2. Treatment of fat-fed rats with the compounds of formula (II) either parenterally or orally, increases this ratio in a dose-dependent manner.

For `Br.COC(=O)[C@@H](NC(=O)[C@@H](N)c1ccc(O)cc1)c1ccc(O)cc1` [Example 1, L,L-Methyl N-[2-(4-hydroxyphenyl)glycyl]-2-(4-hydroxyphenyl)glycinate hydrobromide] (H-[Hpg]-[Hpg]-OMe), the “% Stimulation (pyruvate oxidation)” value in test [1] (Concentration 0.25 mM) is listed as 23%. In addition, in test [2] (Dose 1.2 mmoles/kg p.o.), the “PDHa/PDHt ratio, compound” value is 1.00.

Turning to `Br.Br.N[C@H](C(=O)N[C@H](C(=O)O)c1ccc(O)cc1)c1ccc(O)cc1.N[C@H](C(=O)N[C@H](C(=O)O)c1ccc(O)cc1)c1ccc(O)cc1.O` [Example 3, L,L-N-[2-(4-hydroxyphenyl)glycyl]-2-(4-hydroxyphenyl)glycine hydrobromide hemihydrate] (H-[Hpg]-[Hpg]-OH), in test [1] (Concentration 0.25 mM), the “% Stimulation (pyruvate oxidation)” value came out at 39%. In test [2] (Dose 1.2 mmoles/kg p.o.), the “PDHa/PDHt ratio, compound” value amounted to 0.75.

As to `Br.COC(=O)[C@@H](NC(=O)[C@H](C)N)c1ccc(O)cc1` [Example 7, L,L-Methyl N-alanyl-2-(4-hydroxyphenyl)glycinate hydrobromide] (H-Ala-[Hpg]-OMe), the “% Stimulation (pyruvate oxidation)” value in test [1] (Concentration 2 mM) is 61%.

For `Br.C[C@H](N)C(=O)N[C@H](C(=O)O)c1ccc(O)cc1` [Example 8, L,L-N-Alanyl-2-(4-hydroxyphenyl)glycine hydrobromide] (H-Ala-[Hpg]-OH), the “% Stimulation (pyruvate oxidation)” value in test [1] (Concentration 2 mM) is 23%. Besides, the “PDHa/PDHt ratio, compound” value was 0.56 in test [2] (Dose 0.6 mmoles/kg p.o.) and 0.77 in test [2] (Dose 0.6 mmoles/kg s.c.).

Consider `Br.CC[C@H](C)[C@H](N)C(=O)N[C@H](C(=O)OC)c1ccc(O)cc1.O` [Example 9, L,L-Methyl N-isoleucyl-2-(4-hydroxyphenyl)glycinate hydrobromide monohydrate] (H-Ile-[Hpg]-OMe), for which the “% Stimulation (pyruvate oxidation)” value in test [1] (Concentration 2 mM) came to 35%. The “PDHa/PDHt ratio, compound” value in test [2] (Dose 1.2 mmoles/kg p.o.) is reported as 0.24; in test [2] (Dose 1.2 mmoles/kg s.c.), 0.48.

As to `Br.CC[C@H](C)[C@H](N)C(=O)N[C@H](C(=O)O)c1ccc(O)cc1` [Example 10, L,L-N-isoleucyl-2-(4-hydroxyphenyl)glycine hydrobromide] (H-Ile-[Hpg]-OH), the “% Stimulation (pyruvate oxidation)” value in test [1] (Concentration 2 mM) was determined as 10%. In addition, the “PDHa/PDHt ratio, compound” value is on record as 0.72 in test [2] (Dose 0.6 mmoles/kg p.o.) and 0.86 in test [2] (Dose 0.6 mmoles/kg s.c.).
